Experimental data as given in publication PMC11964933, “Site-specific activation of the proton pump inhibitor rabeprazole by tetrathiolate zinc centres” (Nature Chemistry, 2025).
Where a chain is given by its changes, count along the chain named.

What was measured:
[1] = molecular target: T1, SBP-DENR (SBP-DENR* = C13A/C132A/C154A) (Homo sapiens, UniProt O43583); assay: affinity purification and click Cy5 in-gel labelling; format: cell-based; details: covalent; intact HEK293 MSR cells, 10 µM, 15 min, 37 °C
T1 sequence (O43583 1-198): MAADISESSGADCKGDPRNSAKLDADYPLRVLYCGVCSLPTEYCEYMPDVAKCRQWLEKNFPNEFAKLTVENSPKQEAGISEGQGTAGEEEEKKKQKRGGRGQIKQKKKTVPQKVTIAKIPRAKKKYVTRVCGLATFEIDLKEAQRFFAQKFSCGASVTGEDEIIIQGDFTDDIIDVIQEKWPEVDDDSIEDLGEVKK

[2] = molecular target: T2, His-DENR–MCTS1 complex (recombinant WT DENR; DENR* = C13A/C132A/C154A) (Homo sapiens, UniProt O43583); assay: in-gel Cy5 labelling after click chemistry; format: binding; details: covalent; with NEM; zinc-dependent
T2 construct: His-tagged DENR co-expressed with MCTS1 in Escherichia coli; heterodimeric complex; C4 zinc site C34/C37/C44/C53
T2 sequence (O43583 2-198): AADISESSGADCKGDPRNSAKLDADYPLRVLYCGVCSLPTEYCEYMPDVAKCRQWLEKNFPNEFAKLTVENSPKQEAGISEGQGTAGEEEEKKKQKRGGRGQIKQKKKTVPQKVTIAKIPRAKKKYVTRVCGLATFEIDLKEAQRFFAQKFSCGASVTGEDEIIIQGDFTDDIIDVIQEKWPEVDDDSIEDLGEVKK
T2 sequence (Q9ULC4 1-181 partner): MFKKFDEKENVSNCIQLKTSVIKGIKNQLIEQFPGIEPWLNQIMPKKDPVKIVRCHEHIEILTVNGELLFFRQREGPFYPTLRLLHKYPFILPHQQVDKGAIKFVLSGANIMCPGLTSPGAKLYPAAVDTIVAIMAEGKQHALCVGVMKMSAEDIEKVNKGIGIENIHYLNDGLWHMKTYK

[3] = molecular target: T2, His-DENR–MCTS1 complex (recombinant WT DENR; DENR* = C13A/C132A/C154A); assay: LC-MS/MS adduct mapping; format: binding; details: covalent; fivefold excess, iodoacetamide, 15 min, r.t., pH 7.5; sites C44 and C34
[4] = molecular target: T3, 15N-labelled DENR26–98–MCTS1 complex (Homo sapiens, UniProt O43583); assay: 1H NMR and 1H-15N HSQC; format: binding; details: covalent; fivefold excess, pH 7.5, 298 K
T3 construct: gene DENR; DENR residues 26-98, 15N-labelled, in complex with MCTS1
T3 sequence (O43583 26-98): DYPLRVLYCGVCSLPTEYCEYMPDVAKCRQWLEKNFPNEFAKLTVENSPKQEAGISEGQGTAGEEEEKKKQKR
T3 sequence (Q9ULC4 1-181 partner): T2 sequence (Q9ULC4 1-181 partner)

[5] = molecular target: T4, His-DENR–MCTS1 complex (recombinant WT DENR; DENR* = C13A/C132A/C154A) (Homo sapiens, UniProt O43583, C13A/C132A/C154A); assay: differential alkylation LC-MS; intact protein MS; Zn release (PAR); format: binding; details: covalent; 25 µM rabeprazole, fivefold excess, 15 min, r.t., pH 7.5; site C44
T4 construct: His-tagged DENR co-expressed with MCTS1 in Escherichia coli; heterodimeric complex; C4 zinc site C34/C37/C44/C53
T4 sequence (O43583 2-198 C13A/C132A/C154A): T2 sequence (O43583 2-198) with C12A, C131A, C153A
T4 sequence (Q9ULC4 1-181 partner): T2 sequence (Q9ULC4 1-181 partner)

Structure (SMILES)	affinity purification and click Cy5 in-gel labelling [1]	in-gel Cy5 labelling after click chemistry [2]	LC-MS/MS adduct mapping [3]	1H NMR and 1H-15N HSQC [4]	occupancy [5]
Cc1c(OCCCN=[N+]=[N-])ccnc1C[S+]([O-])c1nc2ccccc2[nH]1 (centres unmarked) [Rabazi]	led to the formation of an SBP-DENR–Rabazi disulfide conjugate	Rabazi conjugation to recombinant DENR leads to a rather weak and diffuse band			
COCCCOc1ccnc(C[S+]([O-])c2nc3ccccc3[nH]2)c1C (centres unmarked) [rabeprazole]			we identified the hydrolysed form of rabeprazole on cysteines C44	DENR exhibited time-dependent chemical shift perturbations of the amide peaks during incubation with rabeprazole	~ 80%
